# Experimental data from patent US7799535B1 (priority 1997, dated 2010).
# Like-named read-outs stand apart in the source and are kept apart here.
# Key:
# 35S-PrPC = 35S-PrPC (Mesocricetus auratus, UniProt P04273); format: biochemical, hamster
# rPrPβ = rPrPβ (Mesocricetus auratus, UniProt P04273); format: binding, hamster; conditions: LSB2; each at 0.5 mg/ml; 37° C. for 1 hr
# Hsp104 [1] = target: T1, Hsp104 (Saccharomyces cerevisiae, UniProt P31539); format: binding, yeast
# Sup35 = Sup35 (Saccharomyces cerevisiae, UniProt P05453); experiment: Circular dichroism spectral shifts of mixtures with Sup35; format: binding, yeast; conditions: LSB1; 1 hr, 1 mM ATP, 37° C.
# Method: Reactions were incubated for 1 hr with 1 mM ATP at 37° C., and transferred to a 0.1 mm path-length cuvette. Spectra were recorded at 25° C. in a Jasco 715 spectropolarimeter (bandwidth 1.0 nm, response time 16 sec, speed 20 nm/min, step resolution 0.2 nm, accumulations 4).
# Hsp104 [2] = target: T1, Hsp104; format: biochemical, yeast
# [3] = reactions seeded with untreated PrPSc
# [4] = reactions seeded with partially denatured PrPSc
# T1 sequence (P31539 whole entry, looked up): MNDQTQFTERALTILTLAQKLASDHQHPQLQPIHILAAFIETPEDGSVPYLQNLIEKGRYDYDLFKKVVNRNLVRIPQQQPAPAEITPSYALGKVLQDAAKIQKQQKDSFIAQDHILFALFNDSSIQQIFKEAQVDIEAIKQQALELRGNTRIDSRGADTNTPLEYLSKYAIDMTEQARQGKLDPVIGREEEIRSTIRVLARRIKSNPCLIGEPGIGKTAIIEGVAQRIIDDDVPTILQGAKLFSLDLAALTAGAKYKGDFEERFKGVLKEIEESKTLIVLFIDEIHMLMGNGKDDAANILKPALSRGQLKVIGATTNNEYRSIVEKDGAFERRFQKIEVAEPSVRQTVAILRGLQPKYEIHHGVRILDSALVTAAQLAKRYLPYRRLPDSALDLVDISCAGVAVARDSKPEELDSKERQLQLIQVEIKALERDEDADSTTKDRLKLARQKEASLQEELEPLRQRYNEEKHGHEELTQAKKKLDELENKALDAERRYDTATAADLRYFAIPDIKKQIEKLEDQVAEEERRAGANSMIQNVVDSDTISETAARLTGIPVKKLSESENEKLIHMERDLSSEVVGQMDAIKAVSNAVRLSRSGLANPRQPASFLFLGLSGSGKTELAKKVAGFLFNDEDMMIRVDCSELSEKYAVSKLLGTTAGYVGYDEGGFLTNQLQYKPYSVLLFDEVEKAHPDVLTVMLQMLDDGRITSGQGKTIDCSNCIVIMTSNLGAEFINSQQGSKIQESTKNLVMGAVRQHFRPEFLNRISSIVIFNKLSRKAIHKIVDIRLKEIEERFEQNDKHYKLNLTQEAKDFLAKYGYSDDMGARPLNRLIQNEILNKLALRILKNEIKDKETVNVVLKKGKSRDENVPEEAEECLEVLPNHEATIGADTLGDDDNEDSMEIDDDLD
# Chain of 35S-PrPC (P04273 23-231 limits assumed): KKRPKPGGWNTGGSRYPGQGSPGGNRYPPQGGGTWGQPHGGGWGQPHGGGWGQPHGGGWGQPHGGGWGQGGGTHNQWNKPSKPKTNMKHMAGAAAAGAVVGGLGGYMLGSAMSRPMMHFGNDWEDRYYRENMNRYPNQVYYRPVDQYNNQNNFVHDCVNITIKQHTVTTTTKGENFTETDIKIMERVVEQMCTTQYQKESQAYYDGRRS
# Chain of rPrPβ (P04273 90-231 limits assumed): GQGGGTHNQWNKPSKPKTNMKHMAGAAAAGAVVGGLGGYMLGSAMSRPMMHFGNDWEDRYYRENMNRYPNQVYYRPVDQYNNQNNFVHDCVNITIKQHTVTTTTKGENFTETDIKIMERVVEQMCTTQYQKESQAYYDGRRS
# Chain of Sup35 (P05453 whole entry): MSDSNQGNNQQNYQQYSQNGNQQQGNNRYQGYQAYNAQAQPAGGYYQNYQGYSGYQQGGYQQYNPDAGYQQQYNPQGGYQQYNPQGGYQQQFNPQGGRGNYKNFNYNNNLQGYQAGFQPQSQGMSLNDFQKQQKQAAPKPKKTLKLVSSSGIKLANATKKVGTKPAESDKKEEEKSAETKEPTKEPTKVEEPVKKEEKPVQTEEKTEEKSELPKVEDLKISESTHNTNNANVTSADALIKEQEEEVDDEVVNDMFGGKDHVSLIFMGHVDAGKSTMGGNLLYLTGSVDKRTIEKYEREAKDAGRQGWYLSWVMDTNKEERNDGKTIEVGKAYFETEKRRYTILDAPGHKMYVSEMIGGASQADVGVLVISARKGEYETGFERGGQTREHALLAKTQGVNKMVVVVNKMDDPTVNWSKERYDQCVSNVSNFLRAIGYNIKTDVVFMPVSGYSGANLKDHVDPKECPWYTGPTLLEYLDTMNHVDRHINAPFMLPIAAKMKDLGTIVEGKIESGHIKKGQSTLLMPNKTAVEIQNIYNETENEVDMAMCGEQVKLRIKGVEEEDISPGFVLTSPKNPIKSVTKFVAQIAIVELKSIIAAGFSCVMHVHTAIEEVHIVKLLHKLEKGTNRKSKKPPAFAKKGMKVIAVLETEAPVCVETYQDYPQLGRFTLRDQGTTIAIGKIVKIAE
Molecule,effect of chemical chaperones on 35S-PrPC conversion (35S-PrPC; [3]),effect of chemical chaperones on 35S-PrPC conversion (35S-PrPC; reactions without PrPSc),CD spectrum of mixture with rPrPβ compared with predicted spectrum (rPrPβ),effect of chemical chaperones on 35S-PrPC conversion (35S-PrPC; [4]),further results
"C[S+](C)[O-] [DMSO, dimethyl sulfoxide]",None of the compounds tested affected,None of the compounds tested affected,,,"effect on conversion (35S-PrPC; partially denatured PrPSc, higher levels (up to 30%)): virtually eliminated conversion; stimulation of conversion (35S-PrPC; partially denatured PrPSc, intermediate levels (1-3%)): 2-3 fold"
α-2 macroglobulin,,,much smaller,,CD spectrum of mixture with Hsp104 compared with predicted spectrum (Hsp104 [1]): observed spectra matched the predicted spectra; CD spectrum of mixture with Sup35 compared with predicted spectrum (Sup35): observed spectra matched the predicted spectra
β-amyloid 1-40: a less amyloidogenic derivative of β-amyloid,,,,,effect on the ATPase activity of Hsp104 (in words) (Hsp104 [2]): Less inhibition
OCC(O)CO [glycerol],None of the compounds tested affected,None of the compounds tested affected,,no effect,
OC[C@H]1O[C@H](O[C@H]2O[C@H](CO)[C@@H](O)[C@H](O)[C@H]2O)[C@H](O)[C@@H](O)[C@@H]1O [trehalose],None of the compounds tested affected,None of the compounds tested affected,,inhibited conversion,
Nc1ncnc2c1ncn2[C@@H]1O[C@H](COP(=O)(O)OP(=O)(O)OP(=O)(O)O)[C@@H](O)[C@H]1O [ATP],,,,,rate of change in CD spectrum with Sup35 and Hsp104 (Hsp104 [1]): markedly increased the rate
α-lactalbumin,,,much smaller,,CD spectrum of mixture with Hsp104 compared with predicted spectrum (Hsp104 [1]): observed spectra matched the predicted spectra; CD spectrum of mixture with Sup35 compared with predicted spectrum (Sup35): observed spectra matched the predicted spectra
OC[C@H]1O[C@@](CO)(O[C@H]2O[C@H](CO)[C@@H](O)[C@H](O)[C@H]2O)[C@@H](O)[C@@H]1O [sucrose],None of the compounds tested affected,None of the compounds tested affected,,inhibited conversion,
"β-amyloid 1-42: amyloidogenic peptide, fragment found in neural plaques associated with Alzheimer's disease",,,,,effect on the ATPase activity of Hsp104 (in words) (Hsp104 [2]): inhibited
β-galactosidase,,,much smaller,,
